Data published in patent publication US11679112B2, “Cancer treatments using combinations of CDK and ERK inhibitors” (BIOMED VALLEY DISCOVERIES, INC., priority 2013, dated 2023).
One block for each compound: values may come before it.

Assays:
H2122 cells [1] = assay: Single agent proliferation assay, Hoechst stain, H2122; assay type: cell-based; details: Homo sapiens, NCI-H2122, 72 h, read-out: Relative IC50
Procedure: (§1) Cells were seeded in 96-well plates at the densities indicated in Table 4 in RPMI containing 10% FBS and allowed to adhere overnight prior to addition of compound or vehicle control. Compounds were prepared from DMSO stocks to give the desired final concentrations. The final DMSO concentration was constant at 0.1%. Test compounds were incubated with the cells for 72 h at 37° C., 5% CO2 in a humidified atmosphere. CellTiter-Glo® reagent (Promega, Madison, Wis.) was added according to manufacturer's instructions and luminescence detected using the BMG FLUOstar plate reader (BMG Labtech, Ortenberg, Germany). A duplicate set of assay plates was incubated with 10 μg/ml Hoechst 33342 stain (Invitrogen, Grant Island, N.Y.) in complete growth medium for 1 h at 37° C., 5% CO2 in a humidified atmosphere. The medium was then removed and replaced with PBS and fluorescence detected using a BMG FLUOstar Omega plate reader (BMG labtech, Ortenberg, Germany). The average media only background value was deducted and the data analysed using a 4-parameter logistic equation in GraphPad Prism (GraphPad Software, La Jolla, Calif.).
(§2) The effects of BVD-523, the CDK4/6 inhibitors, another ERK inhibitor (SCH772984), and a reference MEK inhibitor (Trametinib), as single agents on cell viability was assessed after 72 h using two methods (FIGS. 2A-2L). The first method was by quantitating cellular ATP levels using CellTiter-Glo® (Promega, Madison, Wis.). The second method was by quantitating total amount of DNA in an assay well after staining the DNA with Hoechst stain.

H226 cells [2] = assay: Single agent proliferation assay, Hoechst stain, H226; assay type: cell-based; details: Homo sapiens; for IC50: NCI-H226, 72 h, read-out: Relative IC50
Procedure: as §1, §2

A549 cells [3] = assay: Single agent proliferation assay, CellTiter-Glo, A549; assay type: cell-based; details: Homo sapiens; for IC50: 72 h, read-out: Relative IC50
Procedure: as §1, §2

H226 cells [4] = assay: Single agent proliferation assay, CellTiter-Glo, H226; assay type: cell-based; details: Homo sapiens; for inhibition at 10 µM: NCI-H226, @10 μM; for inhibition at 3 µM: NCI-H226, @3 μM
Procedure: as §1, §2

A549 cells [5] = assay: Single agent proliferation assay, Hoechst stain, A549; assay type: cell-based; details: Homo sapiens, 72 h, read-out: Relative IC50
Procedure: as §1, §2

[6] = tested on: MAPK signaling components in A375 cells; assay: Western blot of MAPK, cell cycle and apoptosis signaling in A375 cells; assay type: cell-based, human
Procedure: (§3) For Western blot studies, HCT116 cells (5×10^6) were seeded into 10 cm dishes in McCoy's 5A plus 10% FBS. A375 cells (2.5×10^6) were seeded into 10 cm dishes in DMEM plus 10% FBS. Cells were allowed to adhere overnight prior to addition of the indicated amount of test compound (BVD-523) or vehicle control. Cells were treated for either 4 or 24 hours before isolation of whole-cell protein lysates, as specified below. Cells were harvested by trypsinisation, pelleted and snap frozen. Lysates were prepared with RIPA (Radio-Immunoprecipitation Assay) buffer, clarified by centrifugation and quantitated by bicinchoninic acid assay (BCA) assay. 20-50 μg of protein was resolved by SDS-PAGE electrophoresis, blotted onto PVDF membrane and probed using the antibodies detailed in Table 2 (for the 4-hour treatment) and Table 3 (for the 24-hour treatment) below.

H2122 cells [7] = assay: Single agent proliferation assay, CellTiter-Glo, H2122; assay type: cell-based; details: Homo sapiens; for IC50: NCI-H2122, 72 h, read-out: Relative IC50
Procedure: as §1, §2

H1437 cells [8] = assay: Single agent proliferation assay, Hoechst stain, H1437; assay type: cell-based; details: Homo sapiens; for IC50: NCI-H1437, 72 h, read-out: Relative IC50
Procedure: as §1, §2

[9] = tested on: MAPK signaling in HCT-116 cells; assay: Western blot of MAPK signaling in HCT116 cells; assay type: cell-based, human; details: HCT116, 4 hours, micromolar concentrations
Procedure: as §3

H1437 cells [10] = assay: Single agent proliferation assay, CellTiter-Glo, H1437; assay type: cell-based; details: Homo sapiens; for IC50: NCI-H1437, 72 h, read-out: Relative IC50; for inhibition at 3 µM: NCI-H1437, @3 μM
Procedure: as §1, §2

ERK = details: Morris et al., 2013; cited from earlier work
[11] = read-out: Maximal percentage inhibition

Compound: CC(C)Nc1cc(-c2c[nH]c(C(=O)N[C@H](CO)c3cccc(Cl)c3)c2)c(Cl)cn1 [BVD-523]
- IC50 (H2122 cells [1]): 450 nM
- inhibition at 10 µM (H226 cells [2]; NCI-H226, @10 μM, read-out: Maximal percentage inhibition): 58%
- IC50 (A549 cells [3]): 730 nM
- inhibition at 10 µM (H226 cells [4]; [11]): 34%
- IC50 (A549 cells [5]): 590 nM
- cyclin-D1 level ([6]; 24 hours): greatly reduced
- phosphorylation of ERK-dependent residues (T359/S363) in RSK 1 and 2 proteins ([6]; A375, 4 hours, micromolar concentrations): reduced
- Bim-EL level ([6]; A375, prolonged treatment): increased
- increased apoptosis (PARP cleavage) ([6]; A375, prolonged treatment): not observed
- MAPK feedback phosphatase DUSP6 level ([6]; BRAF mutant cell line, 24 hours): greatly reduced
- concentrations required to induce changes in substrate phosphorylation and effector targets of ERK ([6]; RAF and RAS mutant cancer cells, acute and prolonged treatment): low micromolar range
- effect on autophosphorylation of ERK ([6]; see FIG. 1): allows for the autophosphorylation of ERK while still inhibiting ERK
- IC50 (H2122 cells [7]): 450 nM
- IC50 (H1437 cells [8]): 1400 nM
- phosphorylation of ERK-dependent residues (T359/S363) in RSK 1 and 2 proteins [9]: reduced
- IC50 (H1437 cells [10]): 1200 nM

Compound: CN(C)C(=O)c1cc2cnc(Nc3ccc(N4CCNCC4)cn3)nc2n1C1CCCC1 [LEE-011]
- IC50 (H2122 cells [1]): 450 nM
- IC50 (H226 cells [2]): 370 nM
- inhibition at 10 µM (A549 cells [3]; @10 μM, read-out: Maximal percentage inhibition): 49%
- inhibition at 10 µM (H226 cells [4]; [11]): 32%
- IC50 (A549 cells [5]): 700 nM
- inhibition at 10 µM (H2122 cells [7]; NCI-H2122, @10 μM, read-out: Maximal percentage inhibition): 44%
- IC50 (H1437 cells [8]): 2800 nM
- inhibition at 10 µM (H1437 cells [10]; NCI-H1437, @10 μM, read-out: Maximal percentage inhibition): 30%

Compound: CC(=O)c1c(C)c2cnc(Nc3ccc(N4CCNCC4)cn3)nc2n(C2CCCC2)c1=O [Palbociclib]
- IC50 (H2122 cells [1]): 150 nM
- IC50 (H226 cells [2]): 56 nM
- inhibition at 3 µM (A549 cells [3]; @3 μM, read-out: Maximal percentage inhibition): 41%
- inhibition at 3 µM (H226 cells [4]; [11]): 20%
- IC50 (A549 cells [5]): 130 nM
- inhibition at 3 µM (H2122 cells [7]; NCI-H2122, @3 μM, read-out: Maximal percentage inhibition): 48%
- IC50 (H1437 cells [8]): 220 nM
- inhibition at 3 µM (H1437 cells [10]; [11]): 29%

Compound: O=C(Nc1ccc2[nH]nc(-c3ccncc3)c2c1)[C@@H]1CCN(CC(=O)N2CCN(c3ccc(-c4ncccn4)cc3)CC2)C1 [SCH772984]
- IC50 (H2122 cells [1]): 530 nM
- inhibition at 3 µM (H226 cells [2]; NCI-H226, @3 μM, read-out: Maximal percentage inhibition): 49%
- IC50 (A549 cells [3]): 1100 nM
- inhibition at 3 µM (H226 cells [4]; [11]): 35%
- IC50 (A549 cells [5]): 740 nM
- effect on autophosphorylation of ERK (ERK): inhibits autophosphorylation of ERK
- IC50 (H2122 cells [7]): 630 nM
- inhibition at 3 µM (H1437 cells [8]; NCI-H1437, @3 μM, read-out: Maximal percentage inhibition): 63%
- inhibition at 3 µM (H1437 cells [10]; [11]): 57%

Now those with a lower IC50 (H2122 cells [1]), led by results:

- IC50 (H2122 cells [1]): 3 nM
- IC50 (H226 cells [2]): 2 nM
- IC50 (A549 cells [3]): 5 nM
- IC50 (A549 cells [5]): 5 nM
- IC50 (H2122 cells [7]): 3 nM
- IC50 (H1437 cells [8]): 3 nM
- IC50 (H1437 cells [10]): 2 nM
Compound: CC(=O)Nc1cccc(-n2c(=O)n(C3CC3)c(=O)c3c(Nc4ccc(I)cc4F)n(C)c(=O)c(C)c32)c1 [Trametinib]
- inhibition at 1 µM (H226 cells [4]; NCI-H226, @1 μM, read-out: Maximal percentage inhibition): 57%

- IC50 (H2122 cells [1]): 2 nM
- IC50 (H226 cells [2]): 3 nM
- IC50 (A549 cells [3]): 3 nM
- IC50 (H226 cells [4]; NCI-H226, 72 h, read-out: Relative IC50): 3 nM
- IC50 (A549 cells [5]): 2 nM
- IC50 (H2122 cells [7]): 3 nM
- IC50 (H1437 cells [8]): 3 nM
- IC50 (H1437 cells [10]): 7 nM
Compound: CC(=O)O[C@H]1C(=O)[C@@]2(C)[C@H]([C@H](OC(=O)c3ccccc3)[C@]3(O)C[C@H](OC(=O)[C@H](O)[C@@H](NC(=O)c4ccccc4)c4ccccc4)C(C)=C1C3(C)C)[C@]1(OC(C)=O)CO[C@@H]1C[C@@H]2O [Paclitaxcel, Paclitaxel]
